Test results reported in patent US7704995B2 (Exelixis, Inc., priority 2003, dated 2010).

What follows are compounds tested against T1, Chk1 (Homo sapiens, UniProt O14757) (assay: Chk1 kinase assay: incorporation of γ-33P ATP into immobilized myelin basic protein). Conditions: Table 11, Chk1 only; class symbols A-D; read-out: Chk1 IC50.
T1 construct: purchased Upstate Biotechnology
T1 sequence (O14757 1-476): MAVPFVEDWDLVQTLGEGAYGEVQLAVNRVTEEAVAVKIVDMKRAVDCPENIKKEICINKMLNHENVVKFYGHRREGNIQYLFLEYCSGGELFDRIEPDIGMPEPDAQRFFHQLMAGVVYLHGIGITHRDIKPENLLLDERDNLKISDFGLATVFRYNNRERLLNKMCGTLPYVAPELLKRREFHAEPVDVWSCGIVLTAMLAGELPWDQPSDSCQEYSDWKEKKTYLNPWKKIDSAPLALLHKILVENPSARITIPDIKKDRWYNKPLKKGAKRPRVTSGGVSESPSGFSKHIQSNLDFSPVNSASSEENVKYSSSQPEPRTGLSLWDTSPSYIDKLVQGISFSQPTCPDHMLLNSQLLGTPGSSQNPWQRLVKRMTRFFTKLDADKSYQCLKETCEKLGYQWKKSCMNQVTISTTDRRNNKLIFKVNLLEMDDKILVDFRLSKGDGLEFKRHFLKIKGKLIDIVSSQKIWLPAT
Type: biochemical
Method in brief: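 Plates coated with MBP, then kinase reactions in Hepes pH 7.6 buffer with 10 mM MgCl2 and 1% DMSO were started by adding unlabeled plus γ-33P ATP (10 μM for Chk1 at 10 nM enzyme; 30 μM for Chk2 at 20 nM enzyme). After 1 h at room temperature, plates were washed and counted.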

Row | IC50 [nM] | SMILES
1 | < 50 | COc1ccc(CC(=O)Nc2cccc(-c3cnc(N)c(C(=O)N[C@H]4CCCNC4)n3)c2)cc1 [Example 977, 3-amino-6-[3-({[4-(methyloxy)phenyl]acetyl}amino)phenyl]-N-[(3S)-piperidin-3-yl]pyrazine-2-carboxamide]
2 | < 50 | Nc1ncc(-c2cccc(C(=O)NCc3ccccc3Cl)c2)nc1C(=O)N[C@H]1CCCNC1 [Example 881, 3-amino-6-[3-({[(2-chlorophenyl)methyl]amino}carbonyl)phenyl]-N-[(3S)-piperidin-3-yl]pyrazine-2-carboxamide]
3 | < 50 | COc1cccc(CNC(=O)c2cccc(-c3cnc(N)c(C(=O)N[C@H]4CCCNC4)n3)c2)c1 [Example 1039, 3-amino-6-[3-({[(3-methoxyphenyl)methyl]amino}carbonyl)phenyl]-N-[(3S)-piperidin-3-yl]pyrazine-2-carboxamide]
4 | < 50 | Nc1ncc(-c2cccc(C(=O)NCc3c(F)cccc3F)c2)nc1C(=O)N[C@H]1CCCNC1 [Example 1010, 3-amino-6-[3-({[(2,6-difluorophenyl)methyl]amino}carbonyl)phenyl]-N-[(3S)-piperidin-3-yl]pyrazine-2-carboxamide]
5 | 50 to 1000 | CC(C)(C)OC(=O)NCc1cccc(-c2cnc(N)c(C(=O)N[C@H]3CCCN(C(=O)OC(C)(C)C)C3)n2)c1 [Example 833, 1,1-dimethylethyl (3S)-3-{[(3-amino-6-{3-[({[(1,1-dimethylethyl)oxy]carbonyl}amino)methyl]phenyl}pyrazin-2-yl)carbonyl]amino}piperidine-1-carboxylate]

Same assay, conditions: Table 11; Chk1 only; read-out: Chk1 IC50

Row | IC50 [nM] | SMILES
6 | 50 to 1000 | CNC(=O)c1nc(-c2cccc(CNC3CCc4cccc(F)c43)c2)cnc1N (centres unmarked) [Example 502, 3-amino-6-(3-{[(7-fluoro-2,3-dihydro-1H-inden-1-yl)amino]methyl}phenyl)-N-methylpyrazine-2-carboxamide]
7 | ≥ 10000 | Nc1ncc(-c2cccc(C(=O)NCc3ccccc3)c2)nc1CN1CCOCC1 [Example 694, 3-[5-amino-6-(morpholin-4-ylmethyl)pyrazin-2-yl]-N-(phenylmethyl)benzamide]
8 | 1000 to 10000 | Cc1nnc(-c2nc(-c3cccc(CO)c3)cnc2N)[nH]1 [Example 550, {3-[5-amino-6-(5-methyl-4H-1,2,4-triazol-3-yl)pyrazin-2-yl]phenyl}methanol]
9 | 1000 to 10000 | CNNC(=N)c1nc(-c2cccc(C(=O)N[C@H]3CCc4ccccc43)c2)cnc1N [Example 719, 3-{5-amino-6-[imino(2-methylhydrazino)methyl]pyrazin-2-yl}-N-[(1S)-2,3-dihydro-1H-inden-1-yl)benzamide]
10 | 50 to 1000 | CNC(=O)c1nc(-c2cccc(CNC3CC(=O)c4ccccc43)c2)cnc1N (centres unmarked) [Example 471, 3-amino-N-methyl-6-(3-{[(3-oxo-2,3-dihydro-1H-inden-1-yl)amino]methyl}phenyl)pyrazine-2-carboxamide]
11 | ≥ 10000 | Nc1ncc(-c2cccc(CO)c2)nc1-c1nc(-c2ccc(Cl)cc2)n[nH]1 [Example 581, (3-{5-amino-6-[3-(4-chlorophenyl)-1H-1,2,4-triazol-5-yl]pyrazin-2-yl}phenyl)methanol]
12 | 50 to 1000 | CCN1CCCC(c2nnc(-c3nc(-c4cccc(CN[C@H]5CCc6ccccc65)c4)cnc3N)[nH]2)C1 (stereo partly drawn) [Example 733, 5-(3-{[(1S)-2,3-dihydro-1H-inden-1-ylamino]methyl}phenyl)-3-[5-(1-ethylpiperidin-3-yl)-4H-1,2,4-triazol-3-yl]pyrazin-2-amine]
13 | 50 to 1000 | C[C@H](NC(=O)c1cccc(-c2cnc(N)c(C(=O)N[C@H]3CCNC3)n2)c1)c1ccccc1 [Example 717, 3-amino-6-[3-({[(1S)-1-phenylethyl]amino}carbonyl)phenyl]-N-[(3S)-pyrrolidin-3-yl]pyrazine-2-carboxamide]
14 | 50 to 1000 | CNC(=O)c1nc(-c2cccc(CNC3CCc4ccc(-c5cccs5)cc43)c2)cnc1N (centres unmarked) [Example 495, 3-amino-N-methyl-6-[3-({[6-(2-thienyl)-2,3-dihydro-1H-inden-1-yl]amino}methyl)phenyl]pyrazine-2-carboxamide]
15 | 50 to 1000 | CNC(=O)c1cc(-c2cccc(CNC3CCc4cc(F)c(F)cc43)c2)cnc1N (centres unmarked) [Example 523, 2-amino-5-(3-{[(5,6-difluoro-2,3-dihydro-1H-inden-1-yl)amino]methyl}phenyl)-N-methylpyridine-3-carboxamide]
16 | 50 to 1000 | CN1CCCC(c2n[nH]c(-c3nc(-c4cccc(CN[C@H]5CCc6ccccc65)c4)cnc3N)n2)C1 (stereo partly drawn) [Example 737, 5-(3-{[(1S)-2,3-dihydro-1H-inden-1-ylamino]methyl}phenyl)-3-[3-(1-methylpiperidin-3-yl)-1H-1,2,4-triazol-5-yl]pyrazin-2-amine]
17 | ≥ 10000 | CC(C)(C)OC(=O)N1CC[C@H](CNC(=O)c2nc(-c3cccc(C(=O)N[C@@H]4c5ccccc5C[C@@H]4O)c3)cnc2N)C1 [Example 786, 1,1-dimethylethyl (3R)-3-{[({3-amino-6-[3-({[(1R,2S)-2-hydroxy-2,3-dihydro-1H-inden-1-yl]amino}carbonyl)phenyl]pyrazin-2-yl}carbonyl)amino]methyl}pyrrolidine-1-carboxylate]

Same assay, conditions: read-out: Chk1 IC50

Row | IC50 [nM] | SMILES
18 | 50 to 1000 | CNC(=O)c1nc(-c2cccc(C(=O)NCc3ccc4c(c3)NCCO4)c2)cnc1N [Example 380, 3-amino-6-(3-{[(3,4-dihydro-2H-1,4-benzoxazin-6-ylmethyl)amino]carbonyl}phenyl)-N-methylpyrazine-2-carboxamide]
19 | 50 to 1000 | CNC(=O)c1nc(-c2cccc(OCCN3CCCCC3)c2)cnc1N [Example 188, 3-amino-N-methyl-6-{3-[(2-piperidin-1-ylethyl)oxy]phenyl}pyrazine-2-carboxamide]
20 | 50 to 1000 | CNC(=O)c1nc(-c2cccc(CNC(=O)Cc3c[nH]c4ccccc34)c2)cnc1N [Example 336, 3-amino-6-(3-{[(1H-indol-3-ylacetyl)amino]methyl}phenyl)-N-methylpyrazine-2-carboxamide]
21 | 50 to 1000 | CNC(=O)c1nc(-c2ccc(O)cc2)cnc1N [Example 236, 3-amino-6-(4-hydroxyphenyl)-N-methylpyrazine-2-carboxamide]
22 | 1000 to 10000 | CCNC(=O)c1nc(-c2cccc(C(=O)NCc3ccccc3)c2)cnc1N [Example 272, 3-amino-N-ethyl-6-(3-{[(phenylmethyl)amino]carbonyl}phenyl)pyrazine-2-carboxamide]
23 | ≥ 10000 | Nc1ncc(-c2cccc(C(=O)NCc3c(F)cccc3Cl)c2)nc1C(=O)NC1CC1 [Example 271, 3-amino-6-[3-({[(2-chloro-6-fluorophenyl)methyl]amino}carbonyl)phenyl]-N-cyclopropylpyrazine-2-carboxamide]
24 | 50 to 1000 | CNC(=O)c1nc(-c2cccc(C(=O)NCC3CCCN3)c2)cnc1N (centres unmarked) [Example 367, 3-amino-N-methyl-6-(3-{[(pyrrolidin-2-ylmethyl)amino]carbonyl}phenyl)pyrazine-2-carboxamide]
25 | 50 to 1000 | CNC(=O)c1nc(-c2cccc(C(=O)NCC3CCN(C(=O)OC(C)(C)C)CC3)c2)cnc1N [Example 134, 1,1-dimethylethyl 4-({[(3-{5-amino-6-[(methylamino)carbonyl]pyrazin-2-yl}phenyl)carbonyl]amino}methyl)piperidine-1-carboxylate]
26 | 50 to 1000 | CNC(=O)c1nc(-c2cccc(CNC(=O)c3cc(C(F)(F)F)ccc3Cl)c2)cnc1N [Example 333, 3-amino-6-{3-[({[2-chloro-5-(trifluoromethyl)phenyl]carbonyl}amino)methyl]phenyl}-N-methylpyrazine-2-carboxamide]
27 | < 50 | CNC(=O)c1nc(-c2cccc(CNCc3cc(Cl)cc(Cl)c3)c2)cnc1N [Example 409, 3-amino-6-[3-({[(3,5-dichlorophenyl)methyl]amino}methyl)phenyl]-N-methylpyrazine-2-carboxamide]
28 | 50 to 1000 | CNC(=O)c1nc(-c2cccc(NC(=O)Nc3ccc(F)cc3)c2)cnc1N [Example 89, 3-amino-6-[3-({[(4-fluorophenyl)amino]carbonyl}amino)phenyl]-N-methylpyrazine-2-carboxamide]
29 | 50 to 1000 | CNC(=O)c1nc(-c2cccc(C(=O)NCc3c(F)cccc3Cl)c2)cnc1N [Example 171, 3-amino-6-[3-({[(2-chloro-6-fluorophenyl)methyl]amino}carbonyl)phenyl]-N-methylpyrazine-2-carboxamide]
30 | 50 to 1000 | CNC(=O)c1nc(-c2cccc(C(=O)NCCc3ccccc3)c2)cnc1N [Example 94, 3-amino-N-methyl-6-(3-{[(2-phenylethyl)amino]carbonyl}phenyl)pyrazine-2-carboxamide]
31 | 1000 to 10000 | CNC(=O)c1nc(-c2cccc(C(=O)N(C)Cc3ccccc3)c2)cnc1N [Example 99, 3-amino-N-methyl-6-(3-{[methyl(phenylmethyl)amino]carbonyl}phenyl)pyrazine-2-carboxamide]
32 | 50 to 1000 | CNC(=O)c1nc(-c2cccc(C(=O)NCc3ccccc3OCCN3CCOCC3)c2)cnc1N [Example 373, 3-amino-N-methyl-6-(3-{[({2-[(2-morpholin-4-ylethyl)oxy]phenyl}methyl)amino]carbonyl}phenyl)pyrazine-2-carboxamide]
